{
  "source": "patent US20040014779A1",
  "about": "“Methods and compositions related to IRM compounds and toll-like recptor pathways” (3M Innovative Properties Company, priority 2001, published 2004)",
  "key": {"NF-κB": {"test_system": "NF-κB", "assay": "NFkB-luc reporter in HEK293 cells with empty vector control", "format": "cell-based, human", "details": "luciferase signal; for fold induction at 10 µM: Homo sapiens, HEK293, 16 h, read-out: Fold Increase Over DMSO Control, HEK 293 Vector; for Fold Increase Over DMSO Control, HEK 293 Vector: 10 μM, 16 hours", "method": "(§1) HEK 293 cells were cultured in Minimum Essential Medium (MEM) with 2 mM L-glutamine and Earle's Balanced Salt Solution (Invitrogen Corp., Rockville, Md.) adjusted to contain 1.5 g/L sodium bicarbonate, 0.1 mM non-essential amino acids, and 1.0 mM sodium pyruvate, 90%; heat-inactivated fetal calf serum, 10%. The cells were incubated at 37° C., 8% CO2.\n(§2) The cells were co-transfected with human TLR7 or Empty Vector control pIRES (BD Biosciences Clontech, Palo Alto, Calif.) along with NFkB-luc reporter (Stratagene, La Jolla, Calif.) in a 10:1 ratio with Fugene 6 transfection reagent (Roche Diagnostics Corp., Indianapolis, Ind.) following the manufacturer's instructions.\n(§3) The cells were stimulated with 1 μL of IRM compounds at 1 mM in DMSO (final concentration of 10 μM) or 1 μL DMSO as a control. The plates were then incubated an additional 16 hours at 37° C., 5% CO2. The luciferase signal was read using the LucLite kit (Packard Instrument Co., Meriden, Conn.). The luminescence was measured on the Topcount NXT (Packard Instrument Co., Meriden, Conn.)."}, "human TLR7": {"molecular_target": "T1, human TLR7 (Homo sapiens, UniProt Q9NYK1)", "T1 construct": "expressed in transfected cells; host or cells: HEK293 (pIRES, G-418 selected)", "T1 sequence (Q9NYK1 27-1049)": "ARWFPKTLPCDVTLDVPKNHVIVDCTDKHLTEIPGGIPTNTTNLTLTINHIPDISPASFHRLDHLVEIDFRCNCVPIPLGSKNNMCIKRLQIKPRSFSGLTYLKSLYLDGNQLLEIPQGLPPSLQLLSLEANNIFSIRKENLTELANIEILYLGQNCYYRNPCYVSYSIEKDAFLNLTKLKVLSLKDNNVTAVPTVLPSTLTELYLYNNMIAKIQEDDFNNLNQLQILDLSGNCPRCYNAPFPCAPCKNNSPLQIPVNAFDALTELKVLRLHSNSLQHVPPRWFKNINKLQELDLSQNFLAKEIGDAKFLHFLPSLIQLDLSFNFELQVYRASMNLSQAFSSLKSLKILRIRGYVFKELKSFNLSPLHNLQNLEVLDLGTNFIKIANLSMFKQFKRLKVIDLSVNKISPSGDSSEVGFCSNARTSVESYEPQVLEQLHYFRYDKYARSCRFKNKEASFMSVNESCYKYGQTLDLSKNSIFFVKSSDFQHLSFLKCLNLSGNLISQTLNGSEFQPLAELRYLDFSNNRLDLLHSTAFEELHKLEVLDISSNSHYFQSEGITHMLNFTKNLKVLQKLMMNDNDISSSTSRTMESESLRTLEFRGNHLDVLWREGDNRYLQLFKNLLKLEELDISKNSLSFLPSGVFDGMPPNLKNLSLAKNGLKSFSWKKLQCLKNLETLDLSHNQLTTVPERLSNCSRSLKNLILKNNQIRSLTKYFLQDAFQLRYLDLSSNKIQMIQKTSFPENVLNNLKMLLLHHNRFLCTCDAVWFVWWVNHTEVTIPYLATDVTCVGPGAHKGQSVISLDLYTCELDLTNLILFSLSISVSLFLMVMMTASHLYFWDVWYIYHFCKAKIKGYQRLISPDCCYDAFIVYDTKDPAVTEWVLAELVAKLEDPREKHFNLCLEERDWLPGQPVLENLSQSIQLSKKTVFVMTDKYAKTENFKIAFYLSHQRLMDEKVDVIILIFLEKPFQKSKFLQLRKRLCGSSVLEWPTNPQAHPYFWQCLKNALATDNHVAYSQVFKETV", "assay": "NFkB-luc reporter in HEK293 cells transfected with human TLR7", "format": "cell-based", "method": "as §1, §2, §3"}, "TLR6": {"molecular_target": "T2, TLR6 (Homo sapiens, UniProt Q9Y2C9)", "T2 construct": "Peripheral blood mononuclear cells (PBMCS) were isolated; endogenous in cells; host or cells: human PBMC from healthy volunteers", "T2 sequence (Q9Y2C9 32-796)": "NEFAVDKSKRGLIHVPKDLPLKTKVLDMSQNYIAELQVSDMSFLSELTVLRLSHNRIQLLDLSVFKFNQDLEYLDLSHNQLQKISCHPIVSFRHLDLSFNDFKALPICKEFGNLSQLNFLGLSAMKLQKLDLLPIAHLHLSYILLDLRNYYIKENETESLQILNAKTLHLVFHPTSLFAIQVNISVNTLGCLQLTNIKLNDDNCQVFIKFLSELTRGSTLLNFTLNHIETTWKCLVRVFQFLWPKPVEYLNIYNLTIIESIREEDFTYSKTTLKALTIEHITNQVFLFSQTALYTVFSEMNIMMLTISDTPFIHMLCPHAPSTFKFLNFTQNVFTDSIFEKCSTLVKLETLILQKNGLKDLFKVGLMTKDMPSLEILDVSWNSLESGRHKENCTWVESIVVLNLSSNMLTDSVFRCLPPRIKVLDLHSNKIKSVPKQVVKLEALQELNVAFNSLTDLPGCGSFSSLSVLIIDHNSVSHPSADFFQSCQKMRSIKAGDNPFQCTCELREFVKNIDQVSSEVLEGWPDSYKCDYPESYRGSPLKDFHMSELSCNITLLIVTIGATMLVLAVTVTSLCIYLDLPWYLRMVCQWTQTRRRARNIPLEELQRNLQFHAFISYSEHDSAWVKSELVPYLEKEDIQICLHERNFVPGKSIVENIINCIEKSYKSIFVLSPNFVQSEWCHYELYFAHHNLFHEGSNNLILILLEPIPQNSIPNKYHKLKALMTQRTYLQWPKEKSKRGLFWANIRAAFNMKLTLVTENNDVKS", "T2 sequence (O60603 21-784 partner)": "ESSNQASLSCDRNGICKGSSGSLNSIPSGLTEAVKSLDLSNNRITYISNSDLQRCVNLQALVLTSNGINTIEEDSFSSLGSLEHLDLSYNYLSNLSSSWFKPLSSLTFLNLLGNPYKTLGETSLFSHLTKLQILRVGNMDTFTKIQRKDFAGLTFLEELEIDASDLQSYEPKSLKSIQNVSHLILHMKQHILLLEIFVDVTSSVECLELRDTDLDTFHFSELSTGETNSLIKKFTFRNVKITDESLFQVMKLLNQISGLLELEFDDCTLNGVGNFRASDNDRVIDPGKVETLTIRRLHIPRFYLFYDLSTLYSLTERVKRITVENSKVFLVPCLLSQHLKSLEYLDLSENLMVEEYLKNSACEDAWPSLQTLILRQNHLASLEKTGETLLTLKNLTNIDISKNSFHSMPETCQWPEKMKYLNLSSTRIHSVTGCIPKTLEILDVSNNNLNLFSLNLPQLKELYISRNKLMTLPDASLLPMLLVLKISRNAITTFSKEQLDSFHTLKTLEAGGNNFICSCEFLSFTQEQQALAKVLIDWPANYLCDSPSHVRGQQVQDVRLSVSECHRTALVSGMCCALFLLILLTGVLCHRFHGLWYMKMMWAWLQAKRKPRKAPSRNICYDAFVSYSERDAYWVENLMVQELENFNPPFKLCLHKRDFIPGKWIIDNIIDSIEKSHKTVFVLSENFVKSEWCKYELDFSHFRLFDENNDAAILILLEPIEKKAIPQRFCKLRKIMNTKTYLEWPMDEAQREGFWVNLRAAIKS", "assay": "Anti-TLR6 antibody inhibition of TNF-α production by human PBMC", "format": "cell-based", "details": "preincubation with anti-TLR6 antibodies; compared with LPS", "protocol": "Peripheral blood mononuclear cells (PBMCS) were isolated with the Histopaque HybriMax—1077 density gradient (Sigma Chemical Co., St. Louis, Mo.) from healthy human volunteers after obtaining informed consent.\nPBMC were resuspended in cRPMI at a concentration of 10^6 cells/ml. 100 μl of cells (10^5 cells) were then added to individual wells of a 96 well U-bottom plate (BD Biosciences Discovery Labware, Bedford, Mass.). Solutions containing cRPMI with 40 μg/ml of the affinity purified anti-TLR6 polyclonal antibody were prepared. 50 μl of the antibody solution was added to cells and incubated for 30 minutes. […] Cells were incubated for 18 hours at 37° C. in an atmosphere of 5% CO2/95% air. Supernatants were collected and frozen at −20° C. for cytokine analysis. The data are presented as % inhibition relative to control.\nData shown are representative of six independent experiments."}, "[1]": {"details": "luciferase signal, 10 μM, 16 hours, TLR7 cells"}},
  "note": "“And” between values parts separate entries of the source, which are not always exact repeats. Equal entries are not always repeated. Where two headings read alike, the source gives them in different places.",
  "data": [
    {"compound": "Cc1nc2c(N)nc3ccccc3c2n1CC(C)(C)O.Cl", "note": "[IRM 1, 4-amino-α,α,2-trimethyl-1H-imidazo[4,5-c]quinoline-1-ethanol hydrochloride]", "values": [
      {"measurement": "fold induction at 10 µM", "setting": "NF-κB", "result": 0.86},
      {"measurement": "Fold Increase Over DMSO Control, HEK293 TLR7", "setting": "human TLR7; [1]", "result": 3.75, "unit": "fold"}
    ]},
    {"compound": "Nc1nc2ccccc2c2c1ncn2CCOCCCc1cccnc1", "note": "[IRM 4, 1-{2-[3-(3-pyridyl)propoxy]ethyl}-1H-imidazo[4,5-c]quinolin-4-amine]", "values": [
      {"measurement": "fold induction at 10 µM", "setting": "NF-κB", "result": 1},
      {"measurement": "Fold Increase Over DMSO Control, HEK293 TLR7", "setting": "human TLR7; [1]", "result": 4.06, "unit": "fold"}
    ]},
    {"compound": "CCCCc1nc2c(N)nc3ncccc3c2n1CC(C)C", "note": "[IRM 5, 2-butyl-1-(2-methylpropyl)-1H-imidazo[4,5-c][1,8]naphthyridin-4-amine]", "values": [
      {"measurement": "fold induction at 10 µM", "setting": "NF-κB", "result": 1.21},
      {"measurement": "Fold Increase Over DMSO Control, HEK293 TLR7", "setting": "human TLR7; [1]", "result": 1.13, "unit": "fold"}
    ]},
    {"compound": "CCCCc1nc2c(N)nc3cnccc3c2n1CC(C)C", "note": "[IRM 6, 2-butyl-1-(2-methylpropyl)-1H-imidazo[4,5-c][1,7]naphthyridin-4-amine]", "values": [
      {"measurement": "fold induction at 10 µM", "setting": "NF-κB", "result": 0.95},
      {"measurement": "Fold Increase Over DMSO Control, HEK293 TLR7", "setting": "human TLR7; [1]", "result": 1.25, "unit": "fold"}
    ]},
    {"compound": "CCCCc1nc2c(N)nc3cccnc3c2n1CC(C)C", "note": "[IRM 7, 2-butyl-1-(2-methylpropyl)-1H-imidazo[4,5-c][1,5]naphthyridin-4-amine]", "values": [
      {"measurement": "fold induction at 10 µM", "setting": "NF-κB", "result": 1.3},
      {"measurement": "Fold Increase Over DMSO Control, HEK293 TLR7", "setting": "human TLR7; [1]", "result": 3.06, "unit": "fold"}
    ]},
    {"compound": "CCCCc1nc2c(N)nc3c(c2n1CC(C)C)NCCC3", "note": "[IRM 8, 2-butyl-6,7,8,9-tetrahydro-1-(2-methylpropyl)-1H-imidazo[4,5-c][1,5]naphthyridin-4-amine]", "values": [
      {"measurement": "fold induction at 10 µM", "setting": "NF-κB", "result": 0.91},
      {"measurement": "Fold Increase Over DMSO Control, HEK293 TLR7", "setting": "human TLR7; [1]", "result": 4.59, "unit": "fold"}
    ]},
    {"compound": "CCOCc1nc2c(N)nc3c(c2n1CC(C)(C)O)CCCC3", "note": "[IRM 9, 4-amino-2-ethoxymethyl-α,α-dimethyl-6,7,8,9-tetrahydro-1H-imidazol[4,5-c]quinoline-1-ethanol]", "values": [
      {"measurement": "Fold Increase Over DMSO Control, HEK 293 Vector", "setting": "NF-κB", "result": 0.81, "unit": "fold"},
      {"measurement": "Fold Increase Over DMSO Control, HEK293 TLR7", "setting": "human TLR7", "result": 4.67, "unit": "fold"}
    ]},
    {"compound": "C[C@H](c1ccccc1)n1cnc2c(N)nc3ccccc3c21", "note": "[IRM 10, 1-[R(+)-1-phenylethyl]-1H-imidazo[4,5-c]quinolin-4-amine]", "values": [
      {"measurement": "Fold Increase Over DMSO Control, HEK 293 Vector", "setting": "NF-κB", "result": 1.10, "unit": "fold"},
      {"measurement": "Fold Increase Over DMSO Control, HEK293 TLR7", "setting": "human TLR7; [1]", "result": 2.55, "unit": "fold"}
    ]},
    {"compound": "CCCCc1nc2c(N)nc3cccnc3c2s1", "note": "[IRM 11, 2-butyl[1,3]thiazolol[4,5-c][1,5]naphthyridin-4-amine]", "values": [
      {"measurement": "Fold Increase Over DMSO Control, HEK 293 Vector", "setting": "NF-κB", "result": 1.35, "unit": "fold"},
      {"measurement": "Fold Increase Over DMSO Control, HEK293 TLR7", "setting": "human TLR7; [1]", "result": 1.06, "unit": "fold"}
    ]},
    {"compound": "CCCCc1nc2c(N)nc3ccccc3c2n1CCCCNS(C)(=O)=O", "note": "[IRM 12, N-[4-(4-amino-2-butyl-1H-imidazo[4,5-c]quinolin-1-yl)butyl]methanesulfonamide]", "values": [
      {"measurement": "fold induction at 10 µM", "setting": "NF-κB", "result": 1.33},
      {"measurement": "Fold Increase Over DMSO Control, HEK293 TLR7", "setting": "human TLR7; [1]", "result": 15.33, "unit": "fold"}
    ]},
    {"compound": "Nc1nc2ccccc2c2c1nc1n2CCCC1", "note": "[IRM 13, 8,9,10,11-tetrahydropyrido[1′,2′:1,2]imidazol[4,5-c]quinolin-6-amine]", "values": [
      {"measurement": "Fold Increase Over DMSO Control, HEK 293 Vector", "setting": "NF-κB", "result": 1.20, "unit": "fold"},
      {"measurement": "Fold Increase Over DMSO Control, HEK293 TLR7", "setting": "human TLR7; [1]", "result": 2.39, "unit": "fold"}
    ]},
    {"compound": "COCCc1nc2c(N)nc3ccccc3c2n1CCCCNC(=O)c1ccc(-n2cccc2)nc1", "note": "[IRM 14, N^3-{4-[4-amino-2-(2-methoxyethyl)-1H-imidazo[4,5-c]quinolin-1-yl]butyl}-6-(1H-1-pyrrolyl)nicotinamide]", "values": [
      {"measurement": "fold induction at 10 µM", "setting": "NF-κB", "result": 1.31},
      {"measurement": "Fold Increase Over DMSO Control, HEK293 TLR7", "setting": "human TLR7; [1]", "result": 1.37, "unit": "fold"}
    ]},
    {"compound": "CCCCc1nc2c(N)nc3ccccc3c2n1CCNS(C)(=O)=O", "note": "[IRM 15, N-[2-(4-amino-2-butyl-1H-imidazo[4,5-c]quinolin-1-yl)ethyl]methanesulfonamide]", "values": [
      {"measurement": "fold induction at 10 µM", "setting": "NF-κB", "result": 1.04},
      {"measurement": "Fold Increase Over DMSO Control, HEK293 TLR7", "setting": "human TLR7; [1]", "result": 1.88, "unit": "fold"}
    ]},
    {"compound": "COCCc1nc2c(N)nc3ccccc3c2n1CCCCNC(=O)N1CCOCC1", "note": "[IRM 16, N-{4-[4-amino-2-(2-methoxyethyl)-1H-imidazo[4,5-c]quinolin-1-yl]butyl}morpholine-4-carboxamide]", "values": [
      {"measurement": "fold induction at 10 µM", "setting": "NF-κB", "result": 0.98},
      {"measurement": "Fold Increase Over DMSO Control, HEK293 TLR7", "setting": "human TLR7; [1]", "result": 1.51, "unit": "fold"}
    ]},
    {"compound": "CCCCc1nc2c(N)nc(C)c(C)c2n1CCCCNS(C)(=O)=O", "note": "[IRM 17, N-[4-(4-amino-2-butyl-6,7-dimethyl-1H-imidazo[4,5-c]pyridin-1-yl)butyl]methanesulfonamide]", "values": [
      {"measurement": "fold induction at 10 µM", "setting": "NF-κB", "result": 0.99},
      {"measurement": "Fold Increase Over DMSO Control, HEK293 TLR7", "setting": "human TLR7; [1]", "result": "2.79 fold and 2.71 fold"}
    ]},
    {"compound": "Peptidoglycan", "values": [
      {"measurement": "Effect of anti-TLR6 antibodies on stimulus-induced TNF-α production (in words)", "setting": "TLR6", "result": "inhibited by the antibodies to a greater extent"}
    ]}
  ]
}
